The target in this test is 5-hydroxytryptamine receptor 5A (Homo sapiens) (UniProt P47898). The test can be described thus: activation of human HTR5A receptor, late-stage follow-up, counter-screen for OPRM1-OPRD1 heterodimer activator project, cell-based, luminescence, dose response (AID 651688). Conditions: HTR5A counterscreen cells, luminescence (beta-arrestin/complementation).

Calls of active or inactive are those of the source. How the calls were made is not given here.

5-hydroxytryptamine receptor 5A (Homo sapiens), sequence (P47898 whole entry, looked up): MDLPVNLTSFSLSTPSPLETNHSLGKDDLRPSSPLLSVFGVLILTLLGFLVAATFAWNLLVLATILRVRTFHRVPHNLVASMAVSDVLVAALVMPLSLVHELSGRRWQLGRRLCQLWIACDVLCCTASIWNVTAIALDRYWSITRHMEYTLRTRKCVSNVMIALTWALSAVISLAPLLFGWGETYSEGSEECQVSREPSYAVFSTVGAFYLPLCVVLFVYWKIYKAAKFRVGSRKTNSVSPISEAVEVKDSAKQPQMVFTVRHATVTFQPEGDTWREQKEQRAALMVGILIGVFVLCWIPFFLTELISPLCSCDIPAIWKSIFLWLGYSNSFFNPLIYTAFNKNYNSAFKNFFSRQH

Broadly, the EC50 is the concentration giving half of the maximal effect. For the compound `CCOC(=O)C1(CCc2ccccc2)CCN(Cc2ccc(NC(C)=O)cc2)CC1`, the EC50 is > 40 µM (inactive).

As for `OCC1(CCc2ccccc2)CCN(Cc2cc(F)ccc2-n2cccn2)CC1`, the EC50 is > 40 µM (inactive).

Regarding `CCOC(=O)C1(Cc2ccccc2)CCN(Cc2cccn2-c2nccs2)CC1`, the EC50 was > 40 µM (inactive). As to `CCOC(=O)C1(CCc2ccccc2)CCN(Cc2cc(C)cc(C)c2)CC1`, the EC50 was > 40 µM (inactive).

`CCOC(=O)C1(Cc2ccccc2)CCN(Cc2cccn2-c2cccnc2)CC1`: the EC50 was > 40 µM (inactive). For `CCOC(=O)C1(CCOc2ccccc2)CCN(Cc2cccn2-c2cccnc2)CC1`, the EC50 was > 40 µM (inactive).

`CCOC(=O)C1(CCc2ccccc2)CCN(Cc2ccc(OC(C)C)c(C#N)c2)CC1`: the EC50 was > 40 µM (inactive). Consider `CCOC(=O)C1(CC2CCCCO2)CCN(Cc2c(C)cc(C)cc2-n2cccn2)CC1` (stereo unspecified), for which the EC50 was > 40 µM (inactive). As for `CCOC(=O)C1(CCCc2ccccc2)CCN(Cc2cnn(C)c2)CC1`, the EC50 is > 40 µM (inactive).

Regarding `CCOC(=O)C1(CCOc2ccccc2)CCN(Cc2ccc(O)c(OC)c2)CC1`, the EC50 is > 40 µM (inactive). As for `CCOC(=O)C1(CCc2ccccc2)CCN(Cc2ccccc2C)CC1`, the EC50 was > 40 µM (inactive).

(Values after PubChem BioAssay AID651688 (The Scripps Research Institute Molecular Screening Center, 2012).)
